Assay results as given in PubChem BioAssay (NCI).
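Five concentrations, 48 hours, 96-well plates. Here, GI50 denotes the concentration required for 50% inhibition of growth. TGI: total growth inhibition.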 Where a SMILES comes first, the peptide text is derived from it. [ ]: non-standard residue; d: D form. ξ: configuration not given here. Pentanoyl(2-O,4-OH,5-Cl) = O=C(O)C(O)CC(O)CCl; Ile(3ξ) = CCC(C)[C@H](N)C(=O)O; NMeV = CN[C@H](C(=O)O)C(C)C; NMeA = CN[C@@H](C)C(=O)O; βAla = NCCC(=O)O

Legend:
Experiment in all cases: NCI tumour cell line growth inhibition, 48 h
MDA-N = system: MDA-N
DLD-1 colon = system: DLD-1 colon
HOP-18 NSCLC = system: HOP-18 NSCLC
KM20L2 colon = system: KM20L2 colon
LXFL 529 NSCLC = system: LXFL 529 NSCLC
M19-MEL melanoma = system: M19-MEL melanoma
RXF-631 renal = system: RXF-631 renal
SNB-78 CNS = system: SNB-78 CNS
XF 498 CNS = system: XF 498 CNS
P388 leukemia = system: P388 leukemia
P388/ADR leukemia = system: P388/ADR leukemia
SN12K1 renal = system: SN12K1 renal

Compound | TGI (MDA-N) [µM] | TGI (DLD-1 colon) [µM] | TGI (HOP-18 NSCLC) [µM] | TGI (KM20L2 colon) [µM] | TGI (LXFL 529 NSCLC) [µM] | TGI (M19-MEL melanoma) [µM] | TGI (SNB-78 CNS) [µM] | TGI (XF 498 CNS) [µM] | further results
COc1cc(OC)c(OC)cc1/C=C/c1ccccn1 | > 10 |  |  |  |  |  |  |  | 
CC[O-].CC[O-].[O-]c1ccccc1C=NC12CC3CC(CC(C3)C1)C2.[O-]c1ccccc1C=NC12CC3CC(CC(C3)C1)C2.[Ti+4] |  | > 100 | > 100 | > 100 | > 100 | > 100 | > 100 |  | GI50 (DLD-1 colon): 11.1 µM; GI50 (HOP-18 NSCLC): 85.5 µM; GI50 (KM20L2 colon): 45.6 µM; GI50 (LXFL 529 NSCLC): 23.5 µM; GI50 (M19-MEL melanoma): > 100 µM; GI50 (RXF-631 renal): 29.4 µM; TGI (RXF-631 renal): > 100 µM; GI50 (SNB-78 CNS): > 100 µM
Cc1cccc(-c2nc(=S)[nH][nH]2)c1 |  | > 100 | > 100 | > 100 | > 100 | > 100 | > 100 | > 100 | TGI (RXF-631 renal): > 100 µM
O=C(Nc1ccc(Nc2ccc3c(c2)C(=O)c2ccccc2C3=O)c2c1C(=O)c1ccccc1C2=O)c1ccccc1 | > 100 |  |  |  |  |  |  |  | 
CC(C)(Sc1cc(C(C)(C)C)c(O)c(C(C)(C)C)c1)Sc1cc(C(C)(C)C)c(O)c(C(C)(C)C)c1 | > 100 |  |  |  |  |  |  |  | 
O=c1oc2ccccc2cc1P(=O)(O)O | > 100 |  |  |  |  |  |  |  | 
C[C@]12CC[C@H]3[C@@H](CCC4=CC(=O)CC[C@@]43C)[C@]1(O)CC[C@]2(O)C(=O)CO | > 100 |  |  |  |  |  |  |  | 
O=c1c2ccccc2c(=O)n2n1-c1cccc(c1)CSSCc1cccc-2c1 |  | > 100 | > 100 | > 100 | > 100 | > 100 | > 100 | > 100 | GI50 (DLD-1 colon): > 100 µM; GI50 (HOP-18 NSCLC): > 100 µM; GI50 (LXFL 529 NSCLC): > 100 µM; GI50 (M19-MEL melanoma): > 100 µM; GI50 (RXF-631 renal): > 100 µM; TGI (RXF-631 renal): > 100 µM
CC(C)N1CCOC(c2ccc(O)c(O)c2)C1 (configuration not stated) |  | > 100 |  | > 100 | > 100 | > 100 | > 100 | > 100 | TGI (RXF-631 renal): > 100 µM
O=c1c(-c2cccc3ccccc23)c(-c2cccc3ccccc23)c1=O |  | > 100 | > 100 | 1.59 | > 85 | > 100 | > 100 | 99 | 
CS(=O)(=O)N(CCC#N)c1ccc(/C=C2\N=C(c3ccccc3Cl)OC2=O)cc1 |  | > 100 |  | > 100 | > 100 | > 100 | > 100 | > 100 | 
CN(C)C(=C1C(Br)=C(Br)C(Br)=C1Br)N(C)C |  | > 100 | > 100 | > 100 | > 100 | > 100 |  |  | 
CC(NC(=O)c1ccc(Cl)c(Cl)c1)c1ccc(-c2ccccc2)cc1 (configuration not stated) | > 100 |  |  |  |  |  |  |  | 
O=C(O)c1c2c(c(O)c3c1CN(C1CCCCC1)CO3)OCN(C1CCCCC1)C2 | > 100 |  |  |  |  |  |  |  | 
O=C1CN=C(c2ccccc2)c2ccncc2N1 |  | > 100 | > 100 | > 100 | > 100 | > 100 | > 100 | > 100 | TGI (RXF-631 renal): > 100 µM
O=C(c1ccccc1)[C@H]1Nc2ccc(Cl)cc2[C@H]2c3ccccc3O[C@H]21 |  | 30 | 24 | 28.3 | 28.5 | 39.5 | 32.3 | 28.2 | 
COC1C(OC(=O)/C=C/C=C/C=C/C=C/C(=O)O)CCC2(CO2)C1C1(C)OC1CC=C(C)C (configuration not stated) | > 100 | > 100 | 94.8 | > 100 |  | > 100 | > 100 | > 100 | GI50 (MDA-N): 0.246 µM; TGI (P388 leukemia): 29.1 µM; TGI (P388/ADR leukemia): > 49.2 µM; TGI (SN12K1 renal): > 100 µM
C=C1C(=O)O[C@@H]2C[C@@]3(C)CCC[C@H](C)C3=C[C@H]12 (tested in a mixture with another compound) | 7.08 |  |  |  |  |  |  |  | 
CC(C)(C)CNCCO | > 100 |  |  |  |  |  |  |  | 
CN(N=O)C(=O)NC(CCCCNC(=O)OCc1ccccc1)C(=O)OCc1ccccc1 (configuration not stated) |  | > 100 |  | > 100 | 94 | 91.2 | 60.4 | 30.6 | TGI (RXF-631 renal): 44.8 µM
COc1cccc(C2CC(C)(O)Oc3cc4c(cc32)OCO4)c1 (configuration not stated) | 7.84 |  |  |  |  |  |  |  | 
COc1ccc2c(c1[N+](=O)[O-])CC[C@@H]1[C@@H]2CC[C@]2(C)C(=O)CC[C@@H]12 | > 1000 | > 25 | > 25 | > 25 |  | > 25 | 25 | 25 | GI50 (MDA-N): > 25 µM; TGI (P388 leukemia): > 25 µM; TGI (P388/ADR leukemia): 25 µM; TGI (SN12K1 renal): > 25 µM
CCC(C)[C@@H]1NC(=O)[C@@H]2CCCN2C(=O)C(CC(O)CCl)OC(=O)CCNC(=O)[C@H](C)N(C)C(=O)[C@H](C(C)C)N(C)C1=O (some centres not stated) (cyclo([Ile(3ξ)][NMeV][NMeA][βAla][Pentanoyl(2-O,4-OH,5-Cl)]P)) | > 100 |  |  |  |  |  |  |  | 
CN(c1ccccc1)c1nc(=[N+](C)C)ss1 |  | > 100 | > 100 | > 100 | > 100 | > 100 | > 100 | > 100 | 

Compound | TGI (MDA-N) [µM] | TGI (DLD-1 colon) [µM] | TGI (HOP-18 NSCLC) [µM] | TGI (KM20L2 colon) [µM] | TGI (LXFL 529 NSCLC) [µM] | TGI (M19-MEL melanoma) [µM] | TGI (SNB-78 CNS) [µM] | TGI (XF 498 CNS) [µM] | further results
O=NN(CC1(O)OCC(O)C(O)C1O)C(Cc1c[nH]c2ccccc12)C(=O)O (configuration not stated) |  | > 100 |  | > 100 |  | > 100 | > 100 | > 100 | TGI (RXF-631 renal): > 100 µM
CCN(CC)C(=O)c1cccc2c(OC)ccc(OC)c12 |  | > 100 | > 100 | > 100 | > 100 | > 100 |  |  | 
CCC(=O)N1C(=S)SC[C@H]1C(=O)OC |  | > 100 | > 100 | > 100 | > 100 | > 100 | > 100 | > 100 | 
CN(C)CCN1C(=O)c2cccc3cc(N)cc(c23)C1=O | 13.4 | 27.7 | 33.7 | 23.5 |  | 12.5 |  | 3.64 | TGI (P388 leukemia): 12.1 µM; TGI (P388/ADR leukemia): 11.8 µM; TGI (SN12K1 renal): 7.43 µM
CC(C)CC(NC(=O)C(O)C(N)Cc1ccccc1)C(=O)O (configuration not stated) | > 100 |  |  |  |  |  |  |  | 
O=C1C2C3SC(c4cc5ccccc5cc43)C2C(=O)N1c1ccccc1 (configuration not stated) |  |  | > 100 | > 100 | > 100 | > 100 | > 100 |  | TGI (RXF-631 renal): > 100 µM
CCN(CC)CC(C(=O)Nc1c(C)cccc1C)/C(C)=N\NC(=S)NN (configuration not stated) |  | > 100 |  | > 100 | > 100 | > 100 |  | > 100 | TGI (RXF-631 renal): > 100 µM
CC(C)OC(=O)Nc1c([N+](=O)[O-])cc(C(F)(F)F)cc1[N+](=O)[O-] | > 100 | > 100 | > 100 | > 100 | > 100 |  | > 100 | > 55.7 | 
Clc1ccc(NCNC2Nc3ccccc3N2)cc1Cl | > 100 |  |  |  |  |  |  |  | 
Cc1cc[c]([Sb]2[O]C(CO)C(C(O)C(O)C(=O)O)[O]2)cc1 (configuration not stated) | > 100 |  |  |  |  |  |  |  | GI50 (MDA-N): 43.5 µM
O=C(c1ccccc1)c1nc2ccc(Cl)cc2cc1C(Br)Br |  | 0.706 | 1.31 | 0.808 | 0.77 | 1.49 |  | 2.5 | 
O=C(O)C1CCCN1 (configuration not stated) | > 100 |  |  |  |  |  |  |  | 
COc1ccc(C(O)C(c2ccc(OCc3ccccc3)cc2)c2ccc(OCc3ccccc3)cc2)cc1 (configuration not stated) |  | > 100 |  | > 100 | > 100 | > 100 | > 100 | > 100 | 
[O-]c1ccccc1C=NCCN=Cc1ccccc1[O-].[O]=[U+2]=[O] |  | > 100 | > 77.1 | > 100 | 53.3 | > 66.3 |  |  | GI50 (DLD-1 colon): 27 µM; GI50 (HOP-18 NSCLC): 31.2 µM; GI50 (KM20L2 colon): > 100 µM; GI50 (LXFL 529 NSCLC): 17.8 µM; GI50 (M19-MEL melanoma): 32.2 µM
Cc1cc(C)c2c(c1)CSCc1cc(C)cc(C)c1-2 |  | > 100 | > 100 | > 100 | > 100 | 69.2 | 62 |  | 
O=C1/C(=C/c2cc(O)c(O)c(O)c2)Oc2cc(O)cc(OC3OC(CO)C(O)C(O)C3O)c21 (configuration not stated) |  | 42.4 | > 100 | 74 | 28 | 37.1 | 68.5 |  | 
CC1COS(=O)N1c1ccccc1 (configuration not stated) |  | > 100 | > 100 | > 100 | > 100 | > 100 |  | > 100 | 
O=[N+]([O-])c1ccc(Cl)c(C2CC(c3cccc4ccccc34)=Nc3ccccc3S2=O)c1 (configuration not stated) |  | 26.1 | > 100 | > 63.6 | 52.8 | > 62.7 | 38.9 |  | TGI (RXF-631 renal): > 100 µM
O=C1c2ccccc2C(=O)N1C/C=N/NS(=O)(=O)c1cccc([N+](=O)[O-])c1 |  | > 100 |  | > 100 | > 100 | > 100 |  | > 100 | 
O=S(=O)(c1ccccc1)N1CCC1c1ccccc1 (configuration not stated) |  |  | > 100 | > 100 |  | > 100 | > 100 | > 100 | TGI (RXF-631 renal): > 100 µM
CCOc1ccc2c(c1)[n+]([O-])c(C(N)=O)c(N)[n+]2[O-] |  | > 100 | > 100 | > 100 | > 100 | > 100 | > 100 | > 100 | 
CSC(=Nc1ccc([N+](=O)[O-])cc1C#N)NC(=O)c1ccccc1 |  | > 100 | > 100 | > 100 | > 100 | > 100 | > 100 | > 100 | TGI (RXF-631 renal): > 100 µM
CC1=NC2(C(=O)O)C3(C(=O)O)N=C(C)OC3(C(F)(F)F)C2(C(F)(F)F)O1 (configuration not stated) |  | > 100 | > 100 | > 100 |  | > 100 | > 100 | > 100 | 
